Columns and labels:
EP2 [1] = molecular target: T1, EP2 (Homo sapiens, UniProt P43116); assay: EP2 flipr functional assay; assay type: cell-based
Text: (§1) US 2007/0129552, incorporated by reference herein in its entirety, describes the methods used to obtain the in vitro data in the table below.

EP2 [2] = molecular target: T1, EP2; assay: EP2 cAMP assay; assay type: cell-based
Text: as §1

EP2 [3] = molecular target: T1, EP2; assay: EP2 binding (Ki)
Text: as §1

EP4 [4] = molecular target: T2, EP4 (Homo sapiens, UniProt P35408); assay: EP4 flipr functional assay; assay type: cell-based
Text: as §1

EP4 [5] = molecular target: T2, EP4; assay: EP4 binding (Ki)
Text: as §1

T1 sequence (P43116 whole entry): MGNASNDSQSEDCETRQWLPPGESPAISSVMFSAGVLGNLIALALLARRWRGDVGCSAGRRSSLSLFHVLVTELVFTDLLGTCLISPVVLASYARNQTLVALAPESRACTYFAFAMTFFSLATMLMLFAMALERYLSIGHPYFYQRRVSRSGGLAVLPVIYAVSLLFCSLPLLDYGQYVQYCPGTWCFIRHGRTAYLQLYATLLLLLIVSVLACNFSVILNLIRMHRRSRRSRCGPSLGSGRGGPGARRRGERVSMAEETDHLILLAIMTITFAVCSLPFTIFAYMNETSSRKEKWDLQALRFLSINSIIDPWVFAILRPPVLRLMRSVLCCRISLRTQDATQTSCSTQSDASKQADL
T2 sequence (P35408 whole entry): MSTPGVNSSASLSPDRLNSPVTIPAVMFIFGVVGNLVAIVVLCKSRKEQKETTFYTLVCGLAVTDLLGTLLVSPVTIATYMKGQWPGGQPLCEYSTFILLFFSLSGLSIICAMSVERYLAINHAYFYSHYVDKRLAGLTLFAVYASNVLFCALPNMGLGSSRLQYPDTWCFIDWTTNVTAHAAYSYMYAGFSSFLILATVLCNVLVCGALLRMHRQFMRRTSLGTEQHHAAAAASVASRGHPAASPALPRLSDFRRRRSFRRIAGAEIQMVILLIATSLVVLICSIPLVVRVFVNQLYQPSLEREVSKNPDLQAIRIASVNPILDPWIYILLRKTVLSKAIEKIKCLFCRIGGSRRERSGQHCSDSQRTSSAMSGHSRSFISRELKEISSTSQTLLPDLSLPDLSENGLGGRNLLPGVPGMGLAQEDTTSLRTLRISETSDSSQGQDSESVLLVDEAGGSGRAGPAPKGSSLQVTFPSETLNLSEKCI

EC50 (EP2 [1]): 998 nM | EC50 (EP2 [2]): 3 nM | Ki (EP2 [3]): 23 nM | EC50 (EP4 [4]): > 10 µM | Ki (EP4 [5]): 2660 nM
Structure (SMILES): CCCCCCc1ccc(-c2cccn2CCCc2ccc(C(=O)O)s2)cc1 [Example 1, 5-(3-(2-(4-hexylphenyl)-1H-pyrrol-1-yl)propyl)thiophene-2-carboxylic acid]
